Reference: patent publication US7495104B2, “Quinoline or quinazoline derivatives inhibiting auto-phosphorylation of fibroblast growth factor receptors” (Kirin Beer Kabushiki Kaisha, priority 2001, dated 2009)
Where a name gives a salt, the structure may show the parent alone.

Assays:
[1] = tested on: Human gastric cancer cells (OCUM-2MD3); assay: Tumor growth inhibitory activity against human gastric cancer cells (OCUM-2MD3) in nude mice (Pharmacological Test Example 2); type: in vivo; details: unit dose 10 mg/kg, oral, twice a day for 5 days
Procedure: (§1) Human gastric cancer cells (OCUM-2MD3) (kindly provided by Dr. Kosei Hirakawa, Osaka City University) were transplanted into nude mice. […] The test compound suspended in 0.5% methylcellulose was orally administered every day twice a day for 5 days (except for the first day on which the suspension was administered once a day).
(§2) Only 0.5% methylcellulose was administered to the control group in the manner as in the test groups. The tumor growth inhibition rate (TGIR) was calculated as follows: The tumor growth inhibition rate (TGIR)=(1−TX/CX)×100 wherein CX represents the volume of tumor at day X for the control group when the tumor volume at the day of the start of the administration was presumed to be 1; and TX represents the volume of tumor for test compound administration groups.

[2] = tested on: Human gastric cancer cells (OCUM-2MD3); assay: Tumor growth inhibitory activity against human gastric cancer cells (OCUM-2MD3) in nude mice (Pharmacological Test Example 3); type: in vivo; details: Mus musculus, read-out: TGIR (tumor growth inhibition rate); for inhibition in vivo at 10 mg: 240 h, dose per day 10 mg × 2, oral; for inhibition in vivo at 25 mg: 600 h, dose per day 25 mg × 1, oral
Procedure: as §1, §2
Tumor growth inhibitory activity was measured in the same manner as in Pharmacological Test Example 2, except that oral administration was carried out once a day or twice a day (except for the first day on which the suspension was administered once a day).

[3] = biological target: Bek (Homo sapiens, UniProt P21802); assay: Inhibitory activity against Bek-autophosphorylation using ELISA method in OCUM-2MD3 cells; type: cell-based; details: 1 hr with compound, read-out: IC50 (concentration necessary for inhibiting 50% of Bek-phosphorylation)
How it was run: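 Sandwich ELISA (anti-phosphotyrosine capture, anti-Bek detection, peroxidase, 450 nm) measured Bek autophosphorylation in OCUM-2MD3 lysates after 1 hr compound treatment at 37° C in 0.1% serum medium. IC50 derived by scaling between no-drug (100%) and excess positive control at 1000 nM (0%).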

Sequence of Bek (P21802 431-767 limits assumed): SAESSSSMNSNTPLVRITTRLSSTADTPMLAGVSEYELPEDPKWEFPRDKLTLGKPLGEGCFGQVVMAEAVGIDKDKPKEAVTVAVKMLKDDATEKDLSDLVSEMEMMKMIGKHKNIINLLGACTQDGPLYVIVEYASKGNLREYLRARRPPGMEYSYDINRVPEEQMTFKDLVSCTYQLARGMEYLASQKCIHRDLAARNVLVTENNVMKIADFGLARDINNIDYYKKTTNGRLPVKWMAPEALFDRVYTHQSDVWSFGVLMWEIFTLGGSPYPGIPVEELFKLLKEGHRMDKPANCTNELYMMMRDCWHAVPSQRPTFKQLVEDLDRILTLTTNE

IC50 [3] [nM]	SMILES	inhibition in vivo at 10 mg [2] [%]	inhibition in vivo at 25 mg [2] [%]	also measured
	COc1cc2c(Oc3ccc(Nc4ccc(C(C)(C)C)cc4)cc3)ccnc2cc1OCCN1CCOCC1 [Compound 37 (hydrochloride)]			TGIR (tumor growth inhibition rate) [1]: 35%
	COc1cc2c(Oc3ccc(Nc4ccc(C(C)(C)C)cc4)cc3)ccnc2cc1OCC(O)CN1CCOCC1 (stereo not shown) [Compound 59 (hydrochloride)]			TGIR (tumor growth inhibition rate) [1]: 16%
	COc1cc2c(Oc3ccc(Nc4ccc(C(C)(C)C)cc4)cc3)ccnc2cc1OCC[N+]1([O-])CCOCC1 [Compound 83, 4-{2-[(4-{4-[4-(Tert-butyl)anilino]phenoxy}-6-methoxy-7-quinolyl)-oxy]ethyl}-1,4-oxazinan-4-ium-4-oleate]	34		
	COc1cc2c(Oc3ccc(Nc4ccc(C(C)(C)C)cc4)cc3Cl)ccnc2cc1OCCN1CCOCC1 [Compound 84, N-[4-(Tert-butyl)phenyl]-N-(3-chloro-4-{[6-methoxy-7-(2-morpholinoethoxy)-4-quinolyl]oxy}phenyl)amine]	33		
	COc1cc2c(Oc3ccc(Nc4ccc(C(C)(C)C)cc4)cc3)ccnc2cc1OCCNCCO [Compound 85, 2-({2-[(4-{4-[4-(Tert-butyl)anilino]phenoxy}-6-methoxy-7-quinolyl)oxy]ethyl}amino)-1-ethanol]	43		
	COc1cc2nccc(Oc3ccc(Nc4ccc(C(C)(C)C)cc4)cc3)c2cc1OCC(O)CN1CCOCC1 (stereo not shown) [Compound 86, 1-[(4-{4-[4-(Tert-butyl)anilino]phenoxy}-7-methoxy-6-quinolyl)-oxy]-3-morpholino-2-propanol]	30		
< 10	COc1cc2c(Oc3ccc(NC(=O)NCCC(C)(C)C)c(F)c3)ccnc2cc1OCCN1CCOCC1 [Compound 87, 1-(3,3-Dimethyl-butyl)-3-{2-fluoro-4-[6-methoxy-7-(2-morpholin-4-yl-ethoxy)-quinolin-4-yloxy]-phenyl}-urea]	33	54	
10.8	COc1cc2c(Oc3ccc(NC(=O)NCCC(C)(C)C)c(F)c3)ccnc2cc1OCCCN1CCOCC1 [Compound 88, 1-(3,3-Dimethyl-butyl)-3-{2-fluoro-4-[6-methoxy-7-(3-morpholin-4-yl-propoxy)-quinolin-4-yloxy]-phenyl}-urea hydrochloride]	35		
< 10	COc1cc2c(Oc3ccc(NC(=O)NCCC(C)(C)C)c(F)c3)ccnc2cc1OCC(O)CN1CCOCC1 (stereo not shown) [Compound 89, 1-(3,3-Dimethyl-butyl)-3-{2-fluoro-4-[7-(2-hydroxy-3-morpholin-4-yl-propoxy)-6-methoxy-quinolin-4-yloxy]-phenyl}-urea hydrochloride]	29		
12.6	COc1cc2nccc(Oc3ccc(NC(=O)NCCC(C)(C)C)cc3)c2cc1OCCN1CCOCC1 [Compound 90, 1-(3,3-Dimethyl-butyl)-3-{4-[7-methoxy-6-(2-morpholin-4-yl-ethoxy)-quinolin-4-yloxy]-phenyl}-urea]	36		
18.4	COc1cc2c(Oc3ccc(NC(=O)NCCC(C)(C)C)cc3)ccnc2cc1OCCN1CCCCC1 [Compound 91, 1-(3,3-Dimethyl-butyl)-3-{4-[6-methoxy-7-(2-piperidin-1-yl-ethoxy)-quinolin-4-yloxy]-phenyl}-urea hydrochloride]		28	
	COc1cc2c(Oc3ccc(NC(=O)NCCC(C)(C)C)cc3)ccnc2cc1OCCCN1CCC(CO)CC1 [Compound 94, 1-(3,3-Dimethyl-butyl)-3-(4-{7-[3-(4-hydroxymethyl-piperidin-1-yl)-propoxy]-6-methoxy-quinolin-4-yloxy}-phenyl)-urea]	40		
< 10	COc1cc2c(Oc3ccc(NC(=O)NCCC(C)(C)C)c(F)c3)ccnc2cc1OCCN1CC(C)OC(C)C1 (stereo not shown) [Compound 97, 1-(3,3-Dimethyl-butyl)-3-(4-{7-[2-(2,6-dimethyl-morpholin-4-yl)-ethoxy]-6-methoxy-quinolin-4-yloxy}-2-fluoro-phenyl)-urea]		48	
< 10	COc1cc2c(Oc3ccc(NC(=O)NCCC(C)(C)C)cc3F)ccnc2cc1OCCN1CCOCC1 [Compound 98, 1-(3,3-Dimethyl-butyl)-3-{3-fluoro-4-[6-methoxy-7-(2-morpholin-4-yl-ethoxy)-quinolin-4-yloxy]-phenyl}-urea]		48	
28.6	COc1cc2c(Oc3ccc(NC(=O)NCCC(C)(C)C)c(F)c3)ccnc2cc1OCCN1CCCCC1 [Compound 99, 1-(3,3-Dimethyl-butyl)-3-{2-fluoro-4-[6-methoxy-7-(2-piperidin-1-yl-ethoxy)-quinolin-4-yloxy]-phenyl}-urea]		63	
175	COc1cc2c(Oc3ccc(NC(=O)NCCC(C)(C)C)c(Cl)c3)ccnc2cc1OCCN1CCCCC1 [Compound 100, 1-{2-Chloro-4-[6-methoxy-7-(2-piperidin-1-yl-ethoxy)-quinolin-4-yloxy]-phenyl}-3-(3,3-dimethyl-butyl)-urea]		43	
20.1	COc1cc2c(Oc3ccc(NC(=O)NCCC(C)(C)C)c(Cl)c3)ccnc2cc1OCCN1CCOCC1 [Compound 114, 1-{2-Chloro-4-[6-methoxy-7-(2-morpholin-4-yl-ethoxy)-quinolin-4-yloxy]-phenyl}-3-(3,3-dimethyl-butyl)-urea]			inhibition in vivo at 30 mg ([2]; 720 h, dose per day 30 mg × 2, oral): 48%
